Where a name gives a salt, the structure may show the parent alone.

Sequence of PDE4B (Q07343 whole entry, species assumed): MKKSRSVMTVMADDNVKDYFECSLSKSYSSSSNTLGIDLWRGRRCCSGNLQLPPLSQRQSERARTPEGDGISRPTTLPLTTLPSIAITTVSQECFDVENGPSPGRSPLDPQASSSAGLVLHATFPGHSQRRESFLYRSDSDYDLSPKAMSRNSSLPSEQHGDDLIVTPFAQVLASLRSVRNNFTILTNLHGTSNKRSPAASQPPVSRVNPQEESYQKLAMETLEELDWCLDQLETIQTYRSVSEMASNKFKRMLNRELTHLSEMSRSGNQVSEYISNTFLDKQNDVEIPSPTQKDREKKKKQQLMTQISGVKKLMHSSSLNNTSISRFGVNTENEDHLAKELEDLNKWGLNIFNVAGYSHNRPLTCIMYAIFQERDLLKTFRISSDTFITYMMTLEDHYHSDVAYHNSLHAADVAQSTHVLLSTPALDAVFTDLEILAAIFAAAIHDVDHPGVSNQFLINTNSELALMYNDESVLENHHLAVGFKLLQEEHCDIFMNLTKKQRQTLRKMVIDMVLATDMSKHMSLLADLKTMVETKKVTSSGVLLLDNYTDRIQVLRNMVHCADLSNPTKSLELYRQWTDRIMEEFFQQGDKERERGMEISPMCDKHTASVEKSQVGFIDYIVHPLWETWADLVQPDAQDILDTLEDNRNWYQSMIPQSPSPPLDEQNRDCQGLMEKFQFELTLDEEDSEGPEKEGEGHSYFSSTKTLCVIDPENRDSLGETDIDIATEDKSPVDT

This assay addresses PDE4B (Homo sapiens, UniProt Q07343). Kind of assay: Scintillation Proximity Assay (SPA) of PDE4B enzymatic activity ([H3]-cAMP cleavage). Format: biochemical. Particulars: test substance 1 μM; one-hour incubation with [H3]-cAMP and PDE4B at 30° C. The procedure: The Scintillation Proximity Assay (SPA) (GE Healthcare, No. TRKQ7090) was carried out by using the different affinities of cyclic 3″-5″-adenosinemonophosphate (cAMP, low affinity) and linear 5″-adenosinemonophosphate (AMP, high affinity) for yttrium silicate scintillator beads. The cAMP specific phosphodiesterase (PDE) PDE4B cleaves the 3″-phosphoester bond of tritium-labelled [H3]-cAMP to form [H3]-5″-AMP. This [H3]-AMP accumulates on the scintillator beads because of its higher affinity for them and causes scintillation events (flashes of light) which are measured in a Wallac Microbeta Scintillation Counter.
The experiment starts with a one-hour incubation of [H3]-cAMP with the PDE4B enzyme in assay buffer at 30° C., in each case once with the Example substance to be tested (in a concentration of 1 μM) and once without the Example substance to be tested.
After this incubation, the reaction is stopped by the addition of the beads. The beads have an opportunity to settle in the next 45 minutes, then the measurement is carried out in the Scintillation Counter. If the substance is capable of inhibiting the enzymatic activity of the PDE4B, less [H3]-AMP is produced during the incubation phase and fewer scintillation events can be measured.
A general note: Scintillation proximity formats need no separation of bound from free tracer.
As for `CC(C)[C@H](CO)Nc1nc(N2CCN(c3noc4ccccc34)CC2)nc2c1[S+]([O-])CC2` (stereo partly drawn) [Example 150, (R)-2-[2-(4-benzo[d]isoxazol-3-yl-piperazin-1-yl)-5-oxo-6,7-dihydro-5H-5λ^4-thieno[3,2-d]pyrimidin-4-ylamino]-3-methylbutan-1-ol], the inhibition (usually how much of the control response was suppressed) at 1 µM was 95%. `CC(C)[C@H](CO)Nc1nc(N2CCN(c3cc(Cl)nnc3O)CC2)nc2c1[S+]([O-])CC2` (some centres unmarked) [Example 37]: at 1 µM the inhibition was 90%. As to `[O-][S+]1CCc2nc(N3CCN(c4ccncc4)CC3)nc(Nc3cccc(F)c3)c21` (centres unmarked) [Example 117, (3-fluorophenyl)-[5-oxo-2-(4-pyridin-4-yl-piperazin-1-yl)-6,7-dihydro-5H-5λ^4-thieno[3,2-d]pyrimidin-4-yl]-amine], the inhibition at 1 µM is 96%. In turn, `[O-][S+]1CCc2nc(N3CCN(c4ccncn4)CC3)nc(NC3(CO)CC3)c21` (centres unmarked) [Example 55, {1-[5-oxo-2-(4-pyrimidin-4-yl-piperazin-1-yl)-6,7-=dihydro-5H-5λ^4-thieno[3,2-d]pyrimidin-4-ylamino]-cyclopropyl}-methanol trifluoroacetate] registered an inhibition at 1 µM of 95%.

`CC(C)[C@H](CO)Nc1nc(N2CCN(c3ccnnc3)CC2)nc2c1[S+]([O-])CC2` (stereo partly drawn) [Example 39, (R)-3-methyl-2-[5-oxo-2-(4-pyridazin-4-yl-piperazin-1-yl)-6,7-dihydro-5H-5λ^4-thieno[3,2-d]pyrimidin-4-ylamino]-butan-1-ol trifluoroacetate] yielded an inhibition at 1 µM of 92%. The compound `CCOCCOc1ccc(N2CCN(c3nc4c(c(Nc5cccc(F)c5)n3)[S+]([O-])CC4)CC2)nn1` (centres unmarked) [Example 17, (2-{4-[6-(2-ethoxyethoxy)-pyridazin-3-yl]-piperazin-1-yl}-5-oxo-6,7-dihydro-5H-5λ^4-thieno[3,2-d]pyrimidin-4-yl)-(3-fluorophenyl)-amine] yielded an inhibition at 1 µM of 97%. For the compound `[O-][S+]1CCc2nc(N3CCN(c4nc(-c5ccc(F)cc5)cs4)CC3)nc(Nc3cccc(F)c3)c21` (centres unmarked) [Example 142, (3-fluorophenyl)-(2-{4-[4-(4-fluorophenyl)-thiazol-2-yl]-piperazin-1-yl}-5-oxo-6,7-dihydro-5H-5λ^4-thieno[3,2-d]pyrimidin-4-yl)-amine], the inhibition at 1 µM stood at 95%. As for `[O-][S+]1CCc2nc(N3CCN(c4ccncn4)CC3)nc(Nc3cccc(F)c3)c21` (centres unmarked) [Example 113, (3-fluorophenyl)-[5-oxo-2-(4-pyrimidin-4-yl-piperazin-1-yl)-6,7-dihydro-5H-5λ^4-thieno[3,2-d]pyrimidin-4-yl]-amine trifluoroacetate], the inhibition at 1 µM was 96%.

The compound `COc1cccc2c1nc(N1CCN(c3nc4c(c(N[C@@H](CO)C(C)C)n3)[S+]([O-])CC4)CC1)n2C` (stereo partly drawn) [Example 23, (R)-2-{2-[4-(4-methoxy-1-methyl-1H-benzimidazol-2-yl)-piperazin-1-yl]-5-oxo-6,7-dihydro-5H-5λ^4-thieno[3,2-d]pyrimidin-4-ylamino}-3-methylbutan-1-ol] yielded an inhibition at 1 µM of 83%.

For `CC(C)[C@H](CO)Nc1nc(N2CCN(c3ccnnc3N(C)C)CC2)nc2c1[S+]([O-])CC2` (stereo partly drawn) [Example 36, (R)-2-{2-[4-(3-dimethylaminopyridazin-4-yl)-piperazin-1-yl]-5-oxo-6,7-dihydro-5H-5λ^4-thieno[3,2-d]pyrimidin-4-ylamino}-3-methylbutan-1-ol trifluoroacetate], the inhibition at 1 µM was 94%. Compound `CCN1CCc2ncc(N3CCN(c4nc5c(c(N[C@@H](CO)C(C)C)n4)[S+]([O-])CC5)CC3)nc2CC1` (stereo partly drawn) [Example 24, (R)-2-{2-[4-(7-ethyl-6,7,8,9-tetrahydro-5H-pyrazino[2,3-d]azepin-2-yl)-piperazin-1-yl]-5-oxo-6,7-dihydro-5H-5^4-thieno[3,2-d]pyrimidin-4-ylamino}-3-methylbutan-1-ol] gave an inhibition at 1 µM of 94%. To `[O-][S+]1CCc2nc(N3CCN(c4ccncc4)CC3)nc(NC3CCOCC3)c21` (centres unmarked) [Example 96, [5-oxo-2-(4-pyridin-4-yl-piperazin-1-yl)-6,7-dihydro-5H-5λ^4-thieno[3,2-d]pyrimidin-4-yl]-(tetrahydropyran-4-yl)-amine trifluoroacetate] belongs 93%; to `CC(C)[C@H](CO)Nc1nc(N2CCN(c3nccs3)CC2)nc2c1[S+]([O-])CC2` (stereo partly drawn) [Example 2, (R)-3-methyl-2-[5-oxo-2-(4-thiazol-2-yl-piperazin-1-yl)-6,7-dihydro-5H-5λ^4-thieno[3,2-d]pyrimidin-4-ylamino]-butan-1-ol], 90%; to `[O-][S+]1CCc2nc(N3CCN(c4ccncc4)CC3)nc(NC3(CO)CC3)c21` (centres unmarked) [Example 58, {1-[5-oxo-2-(4-pyridin-4-yl-piperazin-1-yl)-6,7-dihydro-5H-5λ^4-thieno[3,2-d]pyrimidin-4-ylamino]-cyclopropyl}-methanol trifluoroacetate], 91%. As for `CN(C)c1nnccc1N1CCN(c2nc3c(c(Nc4cccc(F)c4)n2)[S+]([O-])CC3)CC1` (centres unmarked) [Example 15, {2-[4-(3-dimethylaminopyridazin-4-yl)-piperazin-1-yl]-5-oxo-6,7-dihydro-5H-5λ^4-thieno[3,2-d]pyrimidin-4-yl}-(3-fluorophenyl)-amine], the figure is 97%; as for `CCN1CCc2ncc(N3CCN(c4nc5c(c(Nc6cccc(F)c6)n4)[S+]([O-])CC5)CC3)nc2CC1` (centres unmarked) [Example 109, {2-[4-(7-ethyl-6,7,8,9-tetrahydro-5H-pyrazino[2,3-d]azepin-2-yl)-piperazin-1-yl]-5-oxo-6,7-dihydro-5H-5λ^4-thieno[3,2-d]pyrimidin-4-yl}-(3-fluorophenyl)-amine trifluoroacetate], 96%; as for `CC(C)[C@H](CO)Nc1nc(N2CCN(c3ccncn3)CC2)nc2c1[S+]([O-])CC2` (stereo partly drawn) [Example 28, (R)-3-methyl-2-[5-oxo-2-(4-pyrimidin-4-yl-piperazin-1-yl)-6,7-dihydro-5H-5λ^4-thieno[3,2-d]pyrimidin-4-ylamino]-butan-1-ol trifluoroacetate], 94%. As for `[O-][S+]1CCc2nc(N3CCN(c4ccc(Cl)cn4)CC3)nc(NC3(CO)CC3)c21` (centres unmarked) [Example 13, (1-{2-[4-(5-Chloropyridin-2-yl)-piperazin-1-yl]-5-oxo-6,7-dihydro-5H-5λ^4-thieno[3,2-d]pyrimidin-4-ylamino}-cyclopropyl)-methanol], the figure is 95%; as for `[O-][S+]1CCc2nc(N3CCN(c4ccc(Cl)cn4)CC3)nc(NC3CCOCC3)c21` (centres unmarked) [Example 14, {2-[4-(5-chloropyridin-2-yl)-piperazin-1-yl]-5-oxo-6,7-dihydro-5H-5λ^4-thieno[3,2-d]pyrimidin-4-yl}-(tetrahydropyran-4-yl)-amine], 95%. In the case of `CC(C)[C@H](CO)Nc1nc(N2CCN(c3ccc(Cl)nn3)CC2)nc2c1[S+]([O-])CC2` (stereo partly drawn) [Example 6, (R)-2-{2-[4-(6-chlorpyridazin-3-yl)-piperazin-1-yl]-5-oxo-6,7-dihydro-5H-5λ^4-thieno[3,2-d]pyrimidin-4-ylamino}-3-methylbutan-1-ol], the inhibition at 1 µM worked out at 93%. With `Cn1c(N2CCN(c3nc4c(c(NC5CCOCC5)n3)[S+]([O-])CC4)CC2)nc2cc(F)ccc21` (centres unmarked) [Example 87, {2-[4-(5-fluoro-1-methyl-1H-benzoimidazol-2-yl)-piperazin-1-yl]-5-oxo-6,7-dihydro-5H-5λ^4-thieno[3,2-d]pyrimidin-4-yl}-(tetrahydropyran-4-yl)-amine], the inhibition at 1 µM came out at 96%. With `[O-][S+]1CCc2nc(N3CCN(c4ccc(Cl)nn4)CC3)nc(Nc3cccc(F)c3)c21` (centres unmarked) [Example 7, {2-[4-(6-chlorpyridazin-3-yl)-piperazin-1-yl]-5-oxo-6,7-dihydro-5H-5λ^4-thieno[3,2-d]pyrimidin-4-yl}-(3-fluorophenyl)-amine], testing at 1 µM gave an inhibition of 95%. For the compound `CC(C)[C@H](CO)Nc1nc(N2CCN(c3nc(-c4ccc(F)cc4)cs3)CC2)nc2c1[S+]([O-])CC2` (stereo partly drawn) [Example 148, (R)-2-(2-{4-[4-(4-fluorophenyl)-thiazol-2-yl]-piperazin-1-yl}-5-oxo-6,7-dihydro-5H-5λ^4-thieno[3,2-d]pyrimidin-4-ylamino)-3-m ethylbutan-1-ol], the inhibition at 1 µM was determined as 95%.

`CC(C)[C@H](CO)Nc1nc(N2CCN(c3ccnc(O)c3)CC2)nc2c1[S+]([O-])CC2` (stereo partly drawn) [Example 29, 4-{4-[4((R)-1-hydroxymethyl-2-methylpropylamino)-5-oxo-6,7-dihydro-5H-5λ^4-thieno[3,2-d]pyrimidin-2-yl]-piperazin-1-yl}-pyridin-2-ol] showed an inhibition at 1 µM of 94%.

As for `[O-][S+]1CCc2nc(N3CCN(c4nc5ccccc5o4)CC3)nc(NC3CCOCC3)c21` (centres unmarked) [Example 5, [2-(4-benzoxazol-2-yl-piperazin-1-yl)-5-oxo-6,7-dihydro-5H-5λ^4-thieno[3,2-d]pyrimidin-4-yl]-(tetrahydropyran-4-yl)-amine], the inhibition at 1 µM came out at 96%. With `[O-][S+]1CCc2nc(N3CCN(c4cc(Cl)nnc4O)CC3)nc(Nc3cccc(F)c3)c21` (centres unmarked) [Example 16, 6-chloro-4-{4-[4-(3-fluorophenylamino)-5-oxo-6,7-dihydro-5H-5λ^4-thieno[3,2-d]pyrimidin-2-yl]-piperazin-1-yl}-pyridazin-3-ol], testing at 1 µM gave an inhibition of 95%.

The values are drawn from patent publication US9115142B2, “Heterocycle-substituted piperazino-dihydrothienopyrimidines” (Boehringer Ingelheim International GmbH, priority 2007, dated 2015).
